First: N#Cc1ccc(OCc2ccccc2)c(O)c1
Second: CN(Cc1ccccc1)C(N)=NC#N
The melting point of the first is lower: 101 °C for the first, 102 to 105 °C for the second.

First: CCOC(=O)C(C)C(NC(C)=O)C(C(C)=O)C(=O)Nc1ccc(Cl)cc1 (stereo unspecified)
Second: CCOC(=O)c1cnn(Cc2ccccc2)c1NC(=O)Nc1ccccc1
The melting point of the first is lower: 169 to 173 °C for the first, 178 to 179 °C for the second.

First: COC(=O)c1cc(C(C)OC(C)C)c(C(F)(F)F)cc1N (stereo unspecified)
Second: CC(Oc1cc(C(F)(F)F)cc(C(F)(F)F)c1)C(N)=O (stereo unspecified)
The melting point of the first is higher: 87 to 90 °C for the first, 84 to 85 °C for the second.

Compared with `Fc1ccc(-c2cc(-c3ccccc3)c3cc(Cl)ccc3n2)cc1`, `Cc1nnc(-c2ccc3occ(-c4cccc(Cl)c4)c3c2)o1` is higher in melting point: 141 to 142 °C for the first, 145 to 146 °C for the second.

Compared with `CC1(C)CON(Cc2ccc(NC(=O)C3CC3)cc2Cl)C1=O`, `CC(Br)C(=O)c1cc2c(Cl)cccc2s1` (stereo unspecified) is lower in melting point: 191 to 193 °C for the first, 104 to 106 °C for the second.

First: N#CCCCN1C(=O)C(O)(c2cccc(Cl)c2)c2ccccc21 (stereo unspecified)
Second: O=C(O)CCCCN1CCN(C2=Nc3ccccc3Sc3ccc(Cl)cc32)CC1
The melting point of the first is lower: 124 to 126 °C for the first, 220 to 221 °C for the second.

Compared with `COc1cccc(Nn2cnc(C)c2-c2ccccc2)c1`, `COc1ccc(C=Cn2ncc3ccccc3c2=O)cc1` is higher in melting point: 156 to 158 °C for the first, 267 to 269 °C for the second.

First: CC(Cc1ccc(C2=NNC(=O)CC2)cc1)NCC(O)c1cccc(Cl)c1 (stereo unspecified)
Second: O=C(NCC(O)c1cccc(OCc2ccc3ccccc3n2)c1)c1ccccn1 (stereo unspecified)
The melting point of the first is lower: 49 to 50 °C for the first, 126 to 129 °C for the second.

First: COc1ccc(C(=O)O)c(-c2ccc(C(F)(F)F)cc2)c1
Second: Nc1ccc(-c2cc(OCC(=O)N3CCOCC3)c3c(C(F)(F)F)cccc3n2)cc1
The melting point of the first is higher: 232 to 234 °C for the first, 174 °C for the second.

First: COc1cc(COc2nn(-c3ccccc3)cc2C=O)ccc1OCc1nc(-c2cccnc2)oc1C
Second: COc1cc(CON=C(CCC(=O)O)c2ccccc2)cc(OC)c1OCc1nc(-c2ccccc2)oc1C
The melting point of the first is higher: 161 to 162 °C for the first, 89 to 90 °C for the second.

First: CCCNC(=O)CP(=O)(O)O
Second: NC(=O)C1CCN(C(=O)CNC(=O)CNC(=O)CN2CCCC2=O)CC1
The melting point of the first is lower: 155 to 160 °C for the first, 225 to 227 °C for the second.

First: O=c1[nH][nH]c(=O)c2c(O)c3cc([N+](=O)[O-])ccc3nc12
Second: Cc1cc(C2=NNC(C(N)=O)Cc3cc4c(cc32)OCO4)ccc1[N+](=O)[O-] (stereo unspecified)
The melting point of the first is higher: 264 °C for the first, 246 to 249 °C for the second.

First: Cc1ncc2c(c1O)COC2(C)C
Second: Cc1nn(C2CCCC2O)c(N)c1C#N (stereo unspecified)
The melting point of the first is higher: 247 °C for the first, 157 to 159 °C for the second.

Compared with `N#Cc1cc(Cl)ccc1Oc1cc(N2CCOCC2)c(F)cc1O`, `N#Cc1cc(N)ccc1N1CCC(CCO)CC1` is lower in melting point: 149 to 151 °C for the first, 60 to 63 °C for the second.

First: CCCCC=NNC1=NCCc2ccccc21
Second: CCN1CC(CCN(C)C)Oc2ncccc2C1=S (stereo unspecified)
The melting point of the first is higher: 147 to 148 °C for the first, 73 °C for the second.

First: O=C(NC1CCC(O)CC1)C1CC1 (stereo unspecified)
Second: CC(C)(C)OC(=O)NC1CCN(CC(F)(F)F)CC1
The melting point of the first is higher: 220 to 222 °C for the first, 99.2 to 99.8 °C for the second.

First: COc1ccc(C2=NN(CCO)C(=O)[C@H]3CCCC[C@@H]23)cc1OC (relative stereo)
Second: COc1ccc([C@@H]2c3ccccc3C[C@@H]3CC(=O)N(C)CCN32)cc1 (racemic)
The melting point of the first is lower: 128 to 129 °C for the first, 170 to 172 °C for the second.

Compared with `CCOC(=O)c1c[nH]cc1-c1ccc(C)cc1`, `CC(C)(C)OC(=O)Nc1cc(OC(C)(C)C)c(-c2ccc(F)cc2)cc1N` is lower in melting point: 154 to 155 °C for the first, 139 °C for the second.

First: COc1cc([N+](=O)[O-])ccc1COP(N)(=O)N(CCCl)CCCl (stereo unspecified)
Second: O=[N+]([O-])c1ccc(C(Cl)Cl)cc1
The melting point of the first is higher: 102 to 104 °C for the first, 44 to 46 °C for the second.

Going from `CC(C)(C)NCC(O)COc1ccccc1C(=O)Nc1cccc2c1CC(=O)N2` (stereo unspecified) to `CCn1c(=O)c2[nH]c(C(F)=Cc3ccccc3)nc2n(CC)c1=O`, the melting point rises from 160 °C to > 280 °C.

Compared with `CCCCCCC(=O)c1ccc(OCCN2CCN(c3cc(Cl)nnc3Cl)CC2)cc1`, `CC1CN(c2ccc(C(N)=O)cc2)CCN1Cc1cn2cc(Cl)ccc2n1` (racemic) is higher in melting point: 113 to 115 °C for the first, 202 to 204 °C for the second.

First: COc1ccc(N2C(=O)[C@H](O)[C@H]2c2ccco2)cc1
Second: Clc1ccc(OCc2cccs2)cc1
The melting point of the first is higher: 149 to 152 °C for the first, 45 to 47 °C for the second.

Compared with `CCCCn1c(COCC)nc2c(N)nc3ccc(-c4cccnc4)cc3c21`, `COc1ccc2c(c1)c(-c1cc3nccnc3[nH]1)cn2CCCN` is lower in melting point: 220 to 222 °C for the first, 95 to 100 °C for the second.

First: CCC1(CCCCN2CCc3sccc3C2)C(=O)Nc2cc(F)c(Cl)cc21 (stereo unspecified)
Second: Cc1cc2c(-c3ccccc3C)c(NC(=O)Nc3ccc(F)cc3F)c(=O)n(C)c2cc1Cl
The melting point of the first is lower: 155 to 157 °C for the first, 227 to 229 °C for the second.

Compared with `Clc1ccc(-c2n[nH]c(SC3CCNCC3)c2-c2ccncc2)cc1`, `O=C(O)c1ccc(-c2nc(-c3ccccn3)cs2)cc1` is higher in melting point: 211 °C for the first, > 300 °C for the second.

Going from `N#CCN1CCC(NC(=O)c2cc(Cl)c(N)c3c2OCCC3)CC1` to `CC(C)(C)OC(=O)NC1CCN(c2ccc(C(N)=O)cc2)CC1`, the melting point rises from 194 °C to > 270 °C.

Compared with `N#Cc1ncc(-c2ccc(Br)cc2)cn1`, `c1ccc(-c2nsc3nc4ccccc4n23)nc1` is lower in melting point: 202 to 204 °C for the first, 173 to 174 °C for the second.

First: COC(=O)C1(CN=Cc2ccccc2)C=CC=CC1 (stereo unspecified)
Second: CN(C)c1ncc(C(=O)N2CCOC(c3cccc(O)c3)C2)c(-c2ccccc2)n1 (stereo unspecified)
The melting point of the first is lower: 86 to 89 °C for the first, 140 °C for the second.

First: COc1ccc(C=CCCCCCC(=O)O)cc1
Second: NC(=O)N(O)Cc1cc(Oc2ccc(Cl)cc2)cs1
The melting point of the first is lower: 42 to 43 °C for the first, 141 to 142 °C for the second.

First: CCc1cc(NC2=NCCN2C(C)=O)n(C)n1
Second: CC(C)=CCCC(C)=CC=C1SC(=S)N(CC(=O)O)C1=O
The melting point of the first is higher: 160 to 162 °C for the first, 95 to 98 °C for the second.

First: Nc1nc(NC2Cc3ccccc3N(S(=O)(=O)c3ccc(Cl)cc3Cl)C2)c2cn[nH]c2n1 (stereo unspecified)
Second: Cc1c(-c2cncn2C)[nH]c(=O)c2c1ccc1nc(Nc3c(Cl)cccc3Cl)n(C)c12
The melting point of the first is lower: 153 to 163 °C for the first, > 300 °C for the second.

Compared with `Brc1ccc(-c2cn([C@H]3CN4CCC3CC4)nn2)s1`, `CN(C)[C@H]1CC[C@@H](n2cc(-c3ccc(Oc4ccccc4)cc3)c3c(N)ncnc32)CC1` is higher in melting point: 146 °C for the first, 180 to 182 °C for the second.

First: Cc1nc2ccc3c(c2s1)C(=CC#N)CC3
Second: Cc1c(-c2cc(CN(C)C)ccc2F)sc2nc(N)[nH]c(=O)c12
The melting point of the first is lower: 194 to 195 °C for the first, 230 to 250 °C for the second.

Compared with `CCCCCCCCCCCCC(=O)c1noc(CCCCCCCCCCCC)c1[N+](=O)[O-]`, `CCCC(=O)OCC(=O)C12OCOC1CC1C3CCC4=CC(=O)C=CC4(C)C3C(O)CC12C` (stereo unspecified) is higher in melting point: 60 to 62 °C for the first, 140 to 141 °C for the second.

Compared with `O=C(CBr)c1ccc(Br)c(Br)c1`, `OC(CNC1CC1)c1cccc(F)c1` (stereo unspecified) is lower in melting point: 60 to 61 °C for the first, 57.8 to 60 °C for the second.

Compared with `COc1ccccc1Cc1n[nH]c2c1c(=O)n(-c1cccc(OC(F)(F)F)c1)c1ncccc21`, `COc1ccc(C(=O)Nc2ccc(F)cc2)cc1NC(=S)Nc1cc(Cl)cc(Cl)c1` is lower in melting point: 243 to 245 °C for the first, 175 to 178 °C for the second.

First: CC(C)(C)C1OC1C(O)C1CCCCC1 (stereo unspecified)
Second: CCc1cc(C#N)ccc1Nc1c(N[C@H](C)C(C)(C)C)c(=O)c1=O
The melting point of the first is lower: 38 to 48 °C for the first, 235 to 237 °C for the second.

First: CC1(C)CCC(C)(C)c2cc(-c3cc(-c4ccc(C(=O)O)cc4)ccc3C(=O)O)ccc21
Second: CN1C(=S)N(c2ccc(C#N)c(C(F)(F)F)c2)C(=O)C12CCCC2
The melting point of the first is higher: 343 °C for the first, 162 to 163 °C for the second.
